The values below come from publication PMC3830934 (Science (New York, N.Y.), 2002).

In the assay the target is T1, human DHFR (Homo sapiens, UniProt P00374).
T1 sequence (P00374 1-187): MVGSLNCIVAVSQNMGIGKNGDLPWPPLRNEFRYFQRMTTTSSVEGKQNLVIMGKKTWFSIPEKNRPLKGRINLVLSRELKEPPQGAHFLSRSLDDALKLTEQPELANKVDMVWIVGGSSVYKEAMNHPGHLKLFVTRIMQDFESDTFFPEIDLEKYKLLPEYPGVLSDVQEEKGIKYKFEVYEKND
Kind of assay: enzyme kinetic assay. The format is biochemical.

Structures are written as SMILES.

In general, Ki refers to the equilibrium dissociation constant of an inhibitor or competing ligand from its target. In the case of `CC1(C)N=C(N)N=C(N)N1OCCCOc1cc(Cl)c(Cl)cc1Cl` [WR99210], the Ki amounted to 12 nM.
